The record followed here is US9359367B2, “Tetrahydroquinazolinone derivatives as PARP inhibitors” (Lupin Limited, priority 2012, dated 2016).

Usually IC50 stands for the point on the concentration scale where inhibition reaches its midpoint.

Molecules are shown by their SMILES.

T1 sequence (P09874 whole entry): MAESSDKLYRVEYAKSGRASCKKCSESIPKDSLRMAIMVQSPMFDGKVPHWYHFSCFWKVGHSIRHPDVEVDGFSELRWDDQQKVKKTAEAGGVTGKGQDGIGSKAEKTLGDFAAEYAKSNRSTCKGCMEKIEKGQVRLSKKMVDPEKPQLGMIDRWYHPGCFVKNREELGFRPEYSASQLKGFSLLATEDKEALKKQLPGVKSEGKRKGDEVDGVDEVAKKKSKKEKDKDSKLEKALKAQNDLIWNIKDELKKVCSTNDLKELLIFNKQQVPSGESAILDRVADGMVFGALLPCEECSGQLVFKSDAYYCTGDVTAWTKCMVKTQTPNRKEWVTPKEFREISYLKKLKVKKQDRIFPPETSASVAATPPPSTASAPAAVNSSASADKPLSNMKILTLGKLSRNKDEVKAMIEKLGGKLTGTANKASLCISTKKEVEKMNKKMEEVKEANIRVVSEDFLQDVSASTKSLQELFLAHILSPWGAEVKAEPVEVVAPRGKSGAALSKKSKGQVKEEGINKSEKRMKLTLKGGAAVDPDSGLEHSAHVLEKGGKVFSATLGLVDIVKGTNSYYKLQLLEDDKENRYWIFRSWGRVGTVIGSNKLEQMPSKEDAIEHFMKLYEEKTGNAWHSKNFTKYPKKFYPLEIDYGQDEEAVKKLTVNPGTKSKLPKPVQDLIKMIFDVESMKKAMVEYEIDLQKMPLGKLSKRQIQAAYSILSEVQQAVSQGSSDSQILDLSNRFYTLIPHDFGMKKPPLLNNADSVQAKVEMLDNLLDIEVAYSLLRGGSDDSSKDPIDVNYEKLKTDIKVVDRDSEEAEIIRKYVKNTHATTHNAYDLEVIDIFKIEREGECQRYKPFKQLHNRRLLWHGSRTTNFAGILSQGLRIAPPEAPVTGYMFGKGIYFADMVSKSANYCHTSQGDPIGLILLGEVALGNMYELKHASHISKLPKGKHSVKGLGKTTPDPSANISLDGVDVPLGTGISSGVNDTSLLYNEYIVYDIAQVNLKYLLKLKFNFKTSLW

The test addresses T1, PARP1 (Homo sapiens, UniProt P09874).
T1 construct: purchased BPS Bioscience
The test can be described thus: PARP1 Biochemical Assay (BPS Bioscience kit, chemiluminescence). Particulars: histone-coated plate, biotinilated NAD+, 25° C. for 60 min, luminescence, read-out: PARP 1 inhibition IC50. The gist of the method:
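Human PARP1 (25–75 ng/well) with activated DNA was incubated with compound on histone-coated wells. Biotinylated NAD+ was added and the reaction ran 60 min at 25 °C. Ribosylation was detected by streptavidin-HRP chemiluminescence, % inhibition was normalised to enzyme-free and uninhibited controls, and IC50 was fitted from % inhibition versus concentration.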
Take `O=c1[nH]c([C@@H]2CC[C@H](N3CCN(c4cccc(F)c4)CC3)C2)nc2c1CC1(CC2)CC1` [Compound 153, 2′-((1R,3S)-3-(4-(3-fluorophenyl)piperazin-1-yl)cyclopentyl)-7′,8′-dihydro-3′H-spiro[cyclopropane-1,6′-quinazolin]-4′(5′H)-one]: the IC50 lay within 5 to 500 µM. With `O=c1[nH]c([C@H]2CC[C@H](N3CCN(c4cccc(F)c4)CC3)C2)nc2c1CC1(CC2)CC1` [Compound 154, 2′-((1S,3S)-3-(4-(3-fluorophenyl)piperazin-1-yl)cyclopentyl)-7′,8′-dihydro-3′H-spiro[cyclopropane-1,6′-quinazolin]-4′(5′H)-one] the figure was 0.001 to 0.5 µM.

As to `O=c1[nH]c([C@H]2CC[C@@H](N3CCN(c4cccc(F)c4)CC3)C2)nc2c1CC1(CC2)CC1` [Compound 155, 2′-((1S,3R)-3-(4-(3-fluorophenyl)piperazin-1-yl)cyclopentyl)-7′,8′-dihydro-3′H-spiro[cyclopropane-1,6′-quinazolin]-4′(5′H)-one], the IC50 was in the range of 0.501 to 5 µM.

With `O=c1[nH]c([C@@H]2CC[C@@H](N3CCN(c4cccc(F)c4)CC3)C2)nc2c1CC1(CC2)CC1` [Compound 156, 2′-((1R,3R)-3-(4-(3-fluorophenyl)piperazin-1-yl)cyclopentyl)-7′,8′-dihydro-3′H-spiro[cyclopropane-1,6′-quinazolin]-4′(5′H)-one], the IC50 was in the range of 5 to 500 µM. With `O=c1[nH]c(C2=C[C@H](N3CCN(c4ccc(-c5ccccc5)nc4)CC3)CC2)nc2c1CC1(CC2)CC1` [Compound 157, (R)-2′-(3-(4-(6-phenylpyridin-3-yl)piperazin-1-yl)cyclopent-1-en-1-yl)-7′,8′-dihydro-3′H-spiro[cyclopropane-1,6′-quinazolin]-4′(5′H)-one] the figure was 0.501 to 5 µM; with `O=c1[nH]c(C2=C[C@H](N3CCN(c4ccc(-c5ccccc5)cc4)CC3)CC2)nc2c1CC1(CC2)CC1` [Compound 158, (R)-2′-(3-(4-([1,1′-biphenyl]-4-yl)piperazin-1-yl)cyclopent-1-en-1-yl)-7′,8′-dihydro-3′H-spiro[cyclopropane-1,6′-quinazolin]-4′(5′H)-one], 0.501 to 5 µM; with `O=c1[nH]c(C2=CC(N3C4CCC3CN(c3ccc(Cl)cc3)C4)CC2)nc2c1CC1(CC2)CC1` (stereo not shown) [Compound 159, 2′-(3-(3-(4-chlorophenyl)-3,8-diazabicyclo[3.2.1]octan-8-yl)cyclopent-1-en-1-yl)-7′,8′-dihydro-3′H-spiro[cyclopropane-1,6′-quinazolin]-4′(5′H)-one], 5 to 500 µM.
